Experimental findings from patent publication US20050085524A1, “Pyrazolecarboxamides, intermediates therefor and pest control agent comprising the same as active ingredients” (NIHON NOHYAKU CO,. LTD., priority 2001, published 2005) are described below.

Holding throughout (format): in vivo
For one experiment, the system named is Puccinia recondita. The experiment can be described thus: Fungicidal and bactericidal effect on wheat rust (spray on potted wheat seedling, then inoculation). Particulars: 500 ppm, spray on wheat seedling (Norin No.61), diseased leaf area after 7 days. The procedure: Compound (III) disclosed in JP-A-64-25763 and various compounds in accordance with the present invention were individually prepared into preparations in the same manner as in Preparation 3. The resulting preparations were diluted to given concentrations and sprayed on the stems and leave of a wheat seedling (species: Norin No.61) at the one-leaf to 2-leaf stage as grown in a pot of a 6-cm diameter, at a ratio of 10-ml volume per one pot. After drying the chemical preparations in air, a spore suspension prepared by grinding the spore collected from wheat leave afflicted with Puccinia recondita as the microorganism causing wheat rust was sprayed on the wheat plant, for inoculation. Then, the plant was left to stand alone in a moist chamber at 22° C. for 15 hours. Subsequently, the plant was left to stand in a water pool in a green house for 7 days.
Evaluation was carried out by examining the ratio of the diseased area of each leaf to calculate the control ratio by the same method as in Test Example 1.
The results are shown in Table 4 (in the table, Compound Nos. correspond to Compound Nos, in Table-1.)

Experiment [1] relates to female adult Tetranychus urticae Koch. The experiment can be described thus: Miticidal effect on adult Tetranychus urticae Koch (Phaseolus leaf dip). Conditions: leaf immersion, 25° C., five days after treatment. The procedure: The stem part of a Phaseolus seedling with one fresh first leaf remaining thereon was inserted in a test tube (a volume of 50 ml) containing water, where 15 female adult Tetranychus urticae Koch per one leaf was then inoculated. […] Five days after the treatment, the number of the female adult Tetranychus urticae Koch was counted on the Phaseolus leave, to calculate the adult death ratio (%) based on the above results. The results are shown in Table-6 (Compound Nos. in the table below correspond to Compound Nos. in Table-1).

Another experiment relates to Erypsiphe graminis. The experiment can be described thus: Fungicidal and bactericidal effect on wheat powdery mildew (spray on potted wheat, then inoculation). Particulars: 500 ppm, spray on wheat (Norin No.61), diseased leaf area after 7 to 10 days. The procedure: Compound (III) disclosed in JP-A-64-25763, tebufenpyrade and various compounds in accordance with the present invention were individually prepared into preparations in the same manner as in Formulation 3 The resulting preparations were diluted to given concentrations and sprayed on the stems and leave of a wheat plant (species: Norin No.61) at the one-leaf to 2-leaf stage as grown in a pot of a 6-cm diameter, at a ratio of 10-ml volume per one pot. After drying the chemical preparations in air, the wheat plant was exposed to the spore collected from wheat leave afflicted with Erypsiphe graminis as the microorganism causing wheat powdery mildew, for inoculation. Then, the plant was left to stand alone in a green house for 7 to 10 days.
Evaluation was carried out follows. The ratio of the diseased area of each leaf was examined to calculate the control ratio according to the following formula. The results are shown in Table 3 (in the table, Compound Nos. correspond to Compound Nos. in Table-1.) • Control ratio (%) • =[(mean ratio of diseased areas in non-treated lot) • −(mean ratio of diseased areas in treated lot)]× • ×100
/ (mean ratio of diseased areas in non-treated lot)

Experiment [2] concerns 3rd instar Spodoptera litura larvae. The experiment can be described thus: Effect on larvae of Spodoptera litura (cabbage leaf dip). Particulars: foliar, 120 h, cabbage leaf immersed, 25° C., five days, agonizing insect counted as 0.5 death, read-out: Insecticide Activity (%). On the procedure:
Compound (III) disclosed in JP-A-64-25763 and various compounds in accordance with the present invention were individually prepared into insecticide preparations according to the formulation of Formulation Example 1. The resulting insecticides of the present invention (hydrates) were diluted with water, where chopped cabbage leave (a diameter of 6 cm) were then immersed for one minute. After immersion and subsequent drying in air, the cabbage leave were placed in a plastic cup (inner diameter of 7 cm), where five larvae each of 3rd instar Spodoptera litura were left (twice in duplicate per one concentration). The plastic cup was kept in a thermostat at 25° C. Five days after the larvae were left in the plastic cup, the death and agony of these larvae were examined, to calculate the insecticide activity (%) while an agonizing insect was counted as 0.5 insect death. The results are shown in Table 5 (in the table, Compound Nos. correspond to Compound Nos. in Table-1.)

Turning to `Cc1nn(C)c(C(=O)NC(C)c2ccc(-c3ccccc3)cc2)c1Br` (stereo not shown) [Compound (III)], the “Control Ratio (%)” value with Puccinia recondita and in the experiment with Erypsiphe graminis was 0% in each case. Also, the “Adult death ratio (%)” value in experiment [1] (500 ppm) worked out at 15%. Further, the inhibition at 500 ppm in experiment [2] is 20%.
As for `CCCCCc1ccc(-c2ccc(CNC(=O)c3cc(CC)nn3C)cc2)cc1` [Compound No. 11], in experiment [1] (500 ppm), the “Adult death ratio (%)” value is recorded as 100%.
Take `CCc1cc(C(=O)NCc2ccc(-c3ccc(OC(F)F)cc3)cc2)n(C)n1` [Compound No. 30, N-[4-(4-Difluoromethoxyphenyl)benzyl]-1-methyl-3-ethylpyrazole-5-carboxamide]: the “Control Ratio (%)” value with Puccinia recondita and in the experiment on Erypsiphe graminis was 100% each time. For the same molecule, the “Adult death ratio (%)” value in experiment [1] (500 ppm) came to 100%.
As to `CCCCCCCc1ccc(-c2ccc(CNC(=O)c3cc(CC)nn3C)cc2)cc1` [compound 13], the “Control Ratio (%)” value with Erypsiphe graminis turned out to be 100%.
In the case of `CCc1cc(C(=O)NCc2ccc(-c3ccc(OC(C)C)cc3)cc2)n(C)n1` [compound 25], the “Control Ratio (%)” value in the experiment on Puccinia recondita and in the experiment with Erypsiphe graminis was 100% each time.
`Cn1nc2c(c1C(=O)NCc1ccc(-c3ccc(OC(F)(F)F)cc3)cc1)CCCC2` [compound 106]: the “Adult death ratio (%)” value in experiment [1] (500 ppm) amounted to 100%.
With `CCc1nn(C)c(C(=O)NCc2ccc(C(C)(C)C)cc2)c1Cl` [tebufenpyrade], the “Adult death ratio (%)” value was 0% in experiment [1] (0.8 ppm), 80% in experiment [1] (3.1 ppm) and 100% in experiment [1] (12.5 ppm). Further, the “Control Ratio (%)” value in the experiment on Erypsiphe graminis amounted to 77%.
